pIC50: −log10 of the molar value. Like-named read-outs stand apart in the source and are kept apart here.
Biological target: human recombinant GPR65 (Homo sapiens, UniProt Q8IYL9)
Test: Human GPR65 cAMP HTRF antagonist assay
Format: cell-based
In short: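 Antagonism measured as suppression of the cAMP rise when pH is dropped to 7.2 (control wells pH 7.9) in 1321N1 cells stably carrying human GPR65. Cells in KRH with 1 mM IBMX and 200 μM EDTA saw compound 30 min, then acid stimulation 30 min; HTRF cAMP detection, normalised, 4-parameter logistic IC50.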

[1] = 1321N1-hrGPR65 cells, cAMP HTRF, assay pH 7.2, read-out: hGPR65 IC50 (Activity of selected compounds according to the invention)

Sequence of human recombinant GPR65 (Q8IYL9 whole entry): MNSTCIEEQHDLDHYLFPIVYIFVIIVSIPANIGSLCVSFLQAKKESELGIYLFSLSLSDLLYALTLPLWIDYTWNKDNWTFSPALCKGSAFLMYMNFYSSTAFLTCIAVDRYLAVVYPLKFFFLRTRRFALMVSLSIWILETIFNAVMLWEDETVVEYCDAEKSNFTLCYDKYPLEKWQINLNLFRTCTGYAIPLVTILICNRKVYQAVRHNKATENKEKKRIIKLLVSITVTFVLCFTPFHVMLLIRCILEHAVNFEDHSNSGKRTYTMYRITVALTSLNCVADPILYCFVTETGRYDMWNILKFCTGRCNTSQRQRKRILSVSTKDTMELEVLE

Compound	pIC50	pIC50 [1]
CN1CCc2cc(-c3cc(F)c(NC(=O)N4[C@H]5CC[C@@H]4c4n[nH]c(=O)cc4C5)cc3Cl)ccc2C1=O [Compound 175, (6S,9R)-N-(5-Chloro-2-fluoro-4-(2-methyl-1-oxo-1,2,3,4-tetrahydroisoquinolin-6-yl)phenyl)-3-oxo-3,5,6,7,8,9-hexahydro-2H-6,9-epiminocyclohepta[c]pyridazine-10-carboxamide]	> 6.30	
O=C1COc2ccc(-c3cc(F)c(NC(=O)N4[C@H]5CC[C@@H]4c4n[nH]c(=O)cc4C5)cc3Cl)cc2N1 [Compound 146, (6S,9R)-N-(5-Chloro-2-fluoro-4-(3-oxo-3,4-dihydro-2H-benzo[b][1,4]oxazin-6-yl)phenyl)-3-oxo-3,5,6,7,8,9-hexahydro-2H-6,9-epiminocyclohepta[c]pyridazine-10-carboxamide]		5.30 to 6.30
O=C(Nc1cc(Cl)c(-c2ccc3n[nH]nc3c2)cc1F)N1[C@H]2CC[C@@H]1c1n[nH]c(=O)cc1C2 [Compound 140, (6S,9R)-N-(4-(2H-Benzo[d][1,2,3]triazol-5-yl)-5-chloro-2-fluorophenyl)-3-oxo-3,5,6,7,8,9-hexahydro-2H-6,9-epiminocyclohepta[c]pyridazine-10-carboxamide]		5.30 to 6.30
Cc1nn(C)c(C)c1-c1cc(F)c(NC(=O)N2[C@H]3CC[C@@H]2c2n[nH]c(=O)cc2C3)cc1Cl [Compound 150, (6S,9R)-N-(5-Chloro-2-fluoro-4-(1,3,5-trimethyl-1H-pyrazol-4-yl)phenyl)-3-oxo-3,5,6,7,8,9-hexahydro-2H-6,9-epiminocyclohepta[c]pyridazine-10-carboxamide]	5.30 to 6.30	
COc1ccc(-c2cc(F)c(NC(=O)N3[C@H]4CC[C@@H]3c3c[nH]c(=O)cc3C4)cc2F)cn1 [Compound 246, (6S,9R)-N-(2,5-Difluoro-4-(6-methoxypyridin-3-yl)phenyl)-3-oxo-3,5,6,7,8,9-hexahydro-2H-6,9-epiminocyclohepta[c]pyridine-10-carboxamide]	> 6.30	
N#Cc1cc(F)c(NC(=O)N2[C@H]3CC[C@@H]2c2n[nH]c(=O)cc2C3)cc1Cl [Compound 111, (6S,9R)-N-(5-Chloro-4-cyano-2-fluorophenyl)-3-oxo-3,5,6,7,8,9-hexahydro-2H-6,9-epiminocyclohepta[c]pyridazine-10-carboxamide]	> 6.30	
O=C(Nc1cc(Cl)c(-c2ccc(N3CCOCC3)nc2)cc1F)N1[C@H]2CC[C@@H]1c1n[nH]c(=O)cc1C2 [Compound 340, (6S,9R)-N-(5-Chloro-2-fluoro-4-(6-morpholinopyridin-3-yl)phenyl)-3-oxo-3,5,6,7,8,9-hexahydro-2H-6,9-epiminocyclohepta[c]pyridazine-10-carboxamide]	> 6.30	
O=C(Nc1cc(Cl)c(-c2ccc(F)nc2)cc1F)N1[C@H]2CC[C@@H]1c1c[nH]c(=O)cc1C2 [Compound 172, (6S,9R)-N-(5-Chloro-2-fluoro-4-(6-fluoropyridin-3-yl)phenyl)-3-oxo-3,5,6,7,8,9-hexahydro-2H-6,9-epiminocyclohepta[c]pyridine-10-carboxamide]	> 6.30	
O=C(Nc1cc(Cl)c(Cl)cc1F)N1[C@@H]2CC[C@H]1c1n[nH]c(=O)cc1C2 [Compound 21, (6R,9S)-N-(4,5-Dichloro-2-fluorophenyl)-3-oxo-3,5,6,7,8,9-hexahydro-2H-6,9-epiminocyclohepta[c]pyridazine-10-carboxamide]		5.30 to 6.30
CC1(c2ccc(NC(=O)N3[C@H]4CC[C@@H]3c3ccnc(F)c3C4)cc2)COC1 [Compound 61, (5R,8S)-1-Fluoro-N-(4-(3-methyloxetan-3-yl)phenyl)-6,7,8,9-tetrahydro-5H-5,8-epiminocyclohepta[c]pyridine-10-carboxamide]		< 5.30
N#Cc1cncc(-c2cc(F)c(NC(=O)N3[C@H]4CC[C@@H]3c3n[nH]c(=O)cc3C4)cc2Cl)c1 [Compound 127, (6S,9R)-N-(5-Chloro-4-(5-cyanopyridin-3-yl)-2-fluorophenyl)-3-oxo-3,5,6,7,8,9-hexahydro-2H-6,9-epiminocyclohepta[c]pyridazine-10-carboxamide]	> 6.30	
O=C(Nc1cc(Cl)c(C(F)(F)F)cc1F)N1[C@H]2CC[C@@H]1c1ccnnc1C2 [Compound 85, (5R,8S)-N-(5-Chloro-2-fluoro-4-(trifluoromethyl)phenyl)-6,7,8,9-tetrahydro-5H-5,8-epiminocyclohepta[c]pyridazine-10-carboxamide]	> 6.30	
O=C(Nc1ccc(C(F)(F)F)c(Br)c1)N1[C@H]2CC[C@@H]1c1n[nH]c(=O)cc1C2 [Compound 31, (6S,9R)-N-(3-Bromo-4-(trifluoromethyl)phenyl)-3-oxo-3,5,6,7,8,9-hexahydro-2H-6,9-epiminocyclohepta[c]pyridazine-10-carboxamide]	> 6.30	
O=C(Nc1cc(Cl)c(Cl)cc1F)N1[C@H]2CC[C@@H]1c1ncc(F)cc1C2 [Compound 98, (6S,9R)-N-(4,5-Dichloro-2-fluorophenyl)-3-fluoro-6,7,8,9-tetrahydro-5H-6,9-epiminocyclohepta[b]pyridine-10-carboxamide]	> 6.30	
N#Cc1cc(NC(=O)N2C3CCC2c2n[nH]c(=O)cc2C3)ccc1C(F)(F)F (racemic) [Compound 11, (±)-N-(3-Cyano-4-(trifluoromethyl)phenyl)-3-oxo-3,5,6,7,8,9-hexahydro-2H-6,9-epiminocyclohepta[c]pyridazine-10-carboxamide]	> 6.30	
Cc1nc2cc(-c3cc(F)c(NC(=O)N4[C@H]5CC[C@@H]4c4c[nH]c(=O)cc4C5)cc3Cl)ccc2o1 [Compound 232, (6S,9R)-N-(5-Chloro-2-fluoro-4-(2-methylbenzo[d]oxazol-5-yl)phenyl)-3-oxo-3,5,6,7,8,9-hexahydro-2H-6,9-epiminocyclohepta[c]pyridine-10-carboxamide]	> 6.30	
O=C(Nc1cc(-c2ccc3nonc3c2)c(C(F)(F)F)cc1F)N1[C@H]2CC[C@@H]1c1ccnc(F)c1C2 [Compound 253, (5R,8S)-N-(5-(benzo[c][1,2,5]oxadiazol-5-yl)-2-fluoro-4-(trifluoromethyl)phenyl)-1-fluoro-6,7,8,9-tetrahydro-5H-5,8-epiminocyclohepta[c]pyridine-10-carboxamide]	> 6.30	
O=C(Nc1cc(Cl)c(I)cc1F)N1C2CCC1c1n[nH]c(=O)cc1C2 (racemic) [Compound 74, (±)-N-(5-Chloro-2-fluoro-4-iodophenyl)-3-oxo-3,5,6,7,8,9-hexahydro-2H-6,9-epiminocyclohepta[c]pyridazine-10-carboxamide]	> 6.30	
N#Cc1ccc(-c2cc(F)c(NC(=O)N3[C@H]4CC[C@@H]3c3n[nH]c(=O)cc3C4)cc2Cl)cn1 [Compound 124, (6S,9R)-N-(5-Chloro-4-(6-cyanopyridin-3-yl)-2-fluorophenyl)-3-oxo-3,5,6,7,8,9-hexahydro-2H-6,9-epiminocyclohepta[c]pyridazine-10-carboxamide]	> 6.30	
O=C(Nc1cc(Cl)c(-c2ccc(OCCC(F)(F)F)nc2)cc1F)N1[C@H]2CC[C@@H]1c1c[nH]c(=O)cc1C2 [Compound 332, (6S,9R)-N-(5-Chloro-2-fluoro-4-(6-(3,3,3-trifluoropropoxy)pyridin-3-yl)phenyl)-3-oxo-3,5,6,7,8,9-hexahydro-2H-6,9-epiminocyclohepta[c]pyridine-10-carboxamide]	> 6.30	
CC(C)Oc1ccc(-c2cc(F)c(NC(=O)N3[C@H]4CC[C@@H]3c3ccnc(F)c3C4)cc2Cl)cn1 [Compound 274, (5R,8S)-N-(5-Chloro-2-fluoro-4-(6-isopropoxypyridin-3-yl)phenyl)-1-fluoro-6,7,8,9-tetrahydro-5H-5,8-epiminocyclohepta[c]pyridine-10-carboxamide]	> 6.30	
O=C(Nc1ccc(OC2COC2)c(Cl)c1)N1[C@H]2CC[C@@H]1c1ccnc(F)c1C2 [Compound 71, (5R,8S)-N-(3-Chloro-4-(oxetan-3-yloxy)phenyl)-1-fluoro-6,7,8,9-tetrahydro-5H-5,8-epiminocyclohepta[c]pyridine-10-carboxamide]		5.30 to 6.30
O=C(Nc1cc(Cl)c(C(F)(F)F)cc1F)N1C2CCC1[C@H](F)c1c2ccnc1F (mixture of isomers) [Compound 157, (±)-(9R)—N-(5-Chloro-2-fluoro-4-(trifluoromethyl)phenyl)-1,9-difluoro-6,7,8,9-tetrahydro-5H-5,8-epiminocyclohepta[c]pyridine-10-carboxamide]	> 6.30	
O=C(Nc1cc(Cl)c(-c2ccc3nonc3c2)cc1F)N1[C@@H]2CC[C@H]1C(F)(F)c1c2ccnc1F [Compound 330, (5R,8S)-N-(4-(Benzo[c][1,2,5]-oxadiazol-5-yl)-5-chloro-2-fluorophenyl)-1,9,9-trifluoro-6,7,8,9-tetrahydro-5H-5,8-epiminocyclohepta[c]pyridine-10-carboxamide]	> 6.30	
Cn1ncc2cc(-c3cc(F)c(NC(=O)N4[C@H]5CC[C@@H]4c4n[nH]c(=O)cc4C5)cc3Cl)ccc21 [Compound 164, (6S,9R)-N-(5-Chloro-2-fluoro-4-(1-methyl-1H-indazol-5-yl)phenyl)-3-oxo-3,5,6,7,8,9-hexahydro-2H-6,9-epiminocyclohepta[c]pyridazine-10-carboxamide]	> 6.30	
O=C(Nc1cc(Cl)c(-c2cc(F)cnc2F)cc1F)N1[C@H]2CC[C@@H]1c1ccnc(F)c1C2 [Compound 260, (5R,8S)-N-(5-Chloro-4-(2,5-difluoropyridin-3-yl)-2-fluorophenyl)-1-fluoro-6,7,8,9-tetrahydro-5H-5,8-epiminocyclohepta[c]pyridine-10-carboxamide]	> 6.30	
Cc1nnc(-c2cc(F)c(NC(=O)N3[C@H]4CC[C@@H]3c3ccnc(F)c3C4)cc2Cl)s1 [Compound 64, (5R,8S)-N-(5-Chloro-2-fluoro-4-(5-methyl-1,3,4-thiadiazol-2-yl)phenyl)-1-fluoro-6,7,8,9-tetrahydro-5H-5,8-epiminocyclohepta[c]pyridine-10-carboxamide]	> 6.30	

Reference: patent publication US20240368173A1, “TRICYCLIC GPR65 MODULATORS” (PATHIOS THERAPEUTICS LIMITED, priority 2021, published 2024)
